{"source": "paper PMC9067983", "about": "“Identification of highly selective type II kinase inhibitors with chiral peptidomimetic tails” (Journal of Enzyme Inhibition and Medicinal Chemistry, 2022)", "assay_in_all_cases": "kinase selectivity profiling", "assay_type_in_all_cases": "biochemical", "conditions_in_all_cases": "10µM ATP, read-out: % inhibition (relative to DMSO)", "key": {"ERK5/MAPK7": {"target": "T1, ERK5/MAPK7 (Homo sapiens, UniProt Q13164)", "T1 construct": "purchased Reaction Biology Corp", "experimental": "(§1) Full panel kinase profiling and kinase IC50 measurement were performed by using Reaction Biology Corp. (San Diego, USA)."}, "SSTK/TSSK6": {"target": "T2, SSTK/TSSK6 (Homo sapiens, UniProt Q9BXA6)", "T2 construct": "purchased Reaction Biology Corp", "experimental": "as §1"}, "GRK2": {"target": "T3, GRK2 (Homo sapiens, UniProt P25098)", "T3 construct": "purchased Reaction Biology Corp", "experimental": "as §1"}, "PAK6": {"target": "T4, PAK6 (Homo sapiens, UniProt Q9NQU5)", "T4 construct": "purchased Reaction Biology Corp", "experimental": "as §1"}, "EPHB3": {"target": "T5, EPHB3 (Homo sapiens, UniProt P54753)", "T5 construct": "purchased Reaction Biology Corp", "experimental": "as §1"}, "RON/MST1R": {"target": "T6, RON/MST1R (Homo sapiens, UniProt Q04912)", "T6 construct": "purchased Reaction Biology Corp", "experimental": "as §1"}, "ITK": {"target": "T7, ITK (Homo sapiens, UniProt Q08881)", "T7 construct": "purchased Reaction Biology Corp", "experimental": "as §1"}, "EPHB2": {"target": "T8, EPHB2 (Homo sapiens, UniProt P29323)", "T8 construct": "purchased Reaction Biology Corp", "experimental": "as §1"}, "LRRK2": {"target": "T9, LRRK2 (Homo sapiens, UniProt Q5S007)", "T9 construct": "purchased Reaction Biology Corp", "experimental": "as §1"}, "CK1g3": {"target": "T10, CK1g3 (Homo sapiens, UniProt Q9Y6M4)", "T10 construct": "purchased Reaction Biology Corp", "T10 sequence (Q9Y6M4 whole entry)": "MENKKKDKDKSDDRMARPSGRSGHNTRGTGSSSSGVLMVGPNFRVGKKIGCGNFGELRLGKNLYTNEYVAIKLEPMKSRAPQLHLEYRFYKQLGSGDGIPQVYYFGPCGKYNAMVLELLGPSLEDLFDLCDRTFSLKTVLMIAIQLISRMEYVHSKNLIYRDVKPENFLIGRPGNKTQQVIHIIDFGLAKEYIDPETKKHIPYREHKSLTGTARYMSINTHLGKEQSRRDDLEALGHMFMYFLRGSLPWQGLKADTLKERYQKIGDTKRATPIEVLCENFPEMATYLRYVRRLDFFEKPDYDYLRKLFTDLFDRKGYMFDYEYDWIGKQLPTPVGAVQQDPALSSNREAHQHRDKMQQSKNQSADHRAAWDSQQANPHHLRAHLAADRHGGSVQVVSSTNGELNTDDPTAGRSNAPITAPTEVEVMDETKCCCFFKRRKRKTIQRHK", "experimental": "as §1"}, "EPHA6": {"target": "T11, EPHA6 (Homo sapiens, UniProt Q9UF33)", "T11 construct": "purchased Reaction Biology Corp", "experimental": "as §1"}, "MST1/STK4": {"target": "T12, MST1/STK4 (Homo sapiens, UniProt Q13043)", "T12 construct": "purchased Reaction Biology Corp", "experimental": "as §1"}, "P38g": {"target": "T13, P38g (Homo sapiens, UniProt P53778)", "T13 construct": "purchased Reaction Biology Corp", "experimental": "as §1"}, "GSK3a": {"target": "T14, GSK3a (Homo sapiens, UniProt P49840)", "T14 construct": "purchased Reaction Biology Corp", "experimental": "as §1"}, "GLK/MAP4K3": {"target": "T15, GLK/MAP4K3 (Homo sapiens, UniProt Q8IVH8)", "T15 construct": "purchased Reaction Biology Corp", "experimental": "as §1"}, "TYRO3/SKY": {"target": "T16, TYRO3/SKY (Homo sapiens, UniProt Q06418)", "T16 construct": "purchased Reaction Biology Corp", "experimental": "as §1"}, "TESK2": {"target": "T17, TESK2 (Homo sapiens, UniProt Q96S53)", "T17 construct": "purchased Reaction Biology Corp", "T17 sequence (Q96S53 whole entry)": "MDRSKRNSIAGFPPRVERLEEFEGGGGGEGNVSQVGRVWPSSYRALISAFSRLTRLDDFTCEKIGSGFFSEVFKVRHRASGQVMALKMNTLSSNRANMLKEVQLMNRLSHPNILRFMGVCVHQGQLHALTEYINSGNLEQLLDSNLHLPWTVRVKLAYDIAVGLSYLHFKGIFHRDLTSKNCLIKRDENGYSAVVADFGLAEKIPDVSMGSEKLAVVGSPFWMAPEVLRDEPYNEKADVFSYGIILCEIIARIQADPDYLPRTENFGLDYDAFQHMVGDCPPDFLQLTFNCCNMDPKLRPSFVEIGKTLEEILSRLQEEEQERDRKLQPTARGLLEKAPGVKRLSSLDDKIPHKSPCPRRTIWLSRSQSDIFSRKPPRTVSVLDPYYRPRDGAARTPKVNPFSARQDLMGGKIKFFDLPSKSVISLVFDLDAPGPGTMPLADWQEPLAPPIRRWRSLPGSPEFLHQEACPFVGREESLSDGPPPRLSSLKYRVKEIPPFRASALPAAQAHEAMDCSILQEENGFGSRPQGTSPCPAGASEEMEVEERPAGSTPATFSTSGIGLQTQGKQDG", "experimental": "as §1"}, "TAK1": {"target": "T18, TAK1 (Homo sapiens, UniProt O43318)", "T18 construct": "purchased Reaction Biology Corp", "experimental": "as §1"}, "CDK1/cyclin A": {"target": "T19, CDK1/cyclin A (Homo sapiens, UniProt P06493)", "T19 construct": "purchased Reaction Biology Corp", "experimental": "as §1"}, "CAMK1d": {"target": "T20, CAMK1d (Homo sapiens, UniProt Q8IU85)", "T20 construct": "purchased Reaction Biology Corp", "experimental": "as §1"}, "STK25/YSK1": {"target": "T21, STK25/YSK1 (Homo sapiens, UniProt O00506)", "T21 construct": "purchased Reaction Biology Corp", "experimental": "as §1"}, "EPHA2": {"target": "T22, EPHA2 (Homo sapiens, UniProt P29317)", "T22 construct": "purchased Reaction Biology Corp", "experimental": "as §1"}, "NEK2": {"target": "T23, NEK2 (Homo sapiens, UniProt P51955)", "T23 construct": "purchased Reaction Biology Corp", "T23 sequence (P51955 whole entry)": "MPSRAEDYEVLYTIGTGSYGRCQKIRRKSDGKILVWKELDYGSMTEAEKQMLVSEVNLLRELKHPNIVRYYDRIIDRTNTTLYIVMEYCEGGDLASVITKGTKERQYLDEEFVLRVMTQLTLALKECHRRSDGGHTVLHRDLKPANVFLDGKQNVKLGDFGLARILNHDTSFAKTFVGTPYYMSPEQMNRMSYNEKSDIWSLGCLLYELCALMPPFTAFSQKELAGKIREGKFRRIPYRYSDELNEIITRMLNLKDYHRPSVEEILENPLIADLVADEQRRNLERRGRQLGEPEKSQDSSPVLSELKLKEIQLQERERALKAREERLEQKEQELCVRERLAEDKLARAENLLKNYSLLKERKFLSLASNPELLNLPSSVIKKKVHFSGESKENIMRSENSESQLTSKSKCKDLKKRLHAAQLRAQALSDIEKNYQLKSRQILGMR", "experimental": "as §1"}, "MEK3": {"target": "T24, MEK3 (Homo sapiens, UniProt P46734)", "T24 construct": "purchased Reaction Biology Corp", "experimental": "as §1"}, "NIM1": {"target": "T25, NIM1 (Homo sapiens, UniProt Q8IY84)", "T25 construct": "purchased Reaction Biology Corp", "experimental": "as §1"}, "DYRK1B": {"target": "T26, DYRK1B (Homo sapiens, UniProt Q9Y463)", "T26 construct": "purchased Reaction Biology Corp", "experimental": "as §1"}, "TNK1": {"target": "T27, TNK1 (Homo sapiens, UniProt Q13470)", "T27 construct": "purchased Reaction Biology Corp", "experimental": "as §1"}, "MARK2/PAR-1Ba": {"target": "T28, MARK2/PAR-1Ba (Homo sapiens, UniProt Q7KZI7)", "T28 construct": "purchased Reaction Biology Corp", "experimental": "as §1"}, "PKCnu/PRKD3": {"target": "T29, PKCnu/PRKD3 (Homo sapiens, UniProt O94806)", "T29 construct": "purchased Reaction Biology Corp", "experimental": "as §1"}, "MYLK3": {"target": "T30, MYLK3 (Homo sapiens, UniProt Q32MK0)", "T30 construct": "purchased Reaction Biology Corp", "T30 sequence (Q32MK0 whole entry)": "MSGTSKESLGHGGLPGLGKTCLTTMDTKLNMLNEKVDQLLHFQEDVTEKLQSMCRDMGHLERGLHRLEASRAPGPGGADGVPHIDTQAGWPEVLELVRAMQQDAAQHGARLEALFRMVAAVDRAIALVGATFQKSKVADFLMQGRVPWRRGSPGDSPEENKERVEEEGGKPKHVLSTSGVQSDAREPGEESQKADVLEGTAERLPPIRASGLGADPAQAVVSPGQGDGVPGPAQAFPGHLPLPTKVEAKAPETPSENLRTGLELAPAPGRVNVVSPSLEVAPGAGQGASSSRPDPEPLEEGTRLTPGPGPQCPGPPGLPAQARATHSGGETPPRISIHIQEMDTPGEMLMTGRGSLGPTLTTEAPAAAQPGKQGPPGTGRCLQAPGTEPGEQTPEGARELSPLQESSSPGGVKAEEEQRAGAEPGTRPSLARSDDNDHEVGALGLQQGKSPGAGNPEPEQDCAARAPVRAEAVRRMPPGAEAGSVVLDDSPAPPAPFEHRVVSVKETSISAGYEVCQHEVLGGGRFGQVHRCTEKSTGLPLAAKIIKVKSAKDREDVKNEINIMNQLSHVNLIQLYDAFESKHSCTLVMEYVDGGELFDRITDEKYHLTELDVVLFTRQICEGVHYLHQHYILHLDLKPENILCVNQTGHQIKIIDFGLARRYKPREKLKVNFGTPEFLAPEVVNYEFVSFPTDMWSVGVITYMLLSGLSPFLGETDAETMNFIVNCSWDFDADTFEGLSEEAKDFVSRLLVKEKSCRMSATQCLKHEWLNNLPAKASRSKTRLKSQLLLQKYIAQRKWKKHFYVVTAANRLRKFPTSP", "experimental": "as §1"}, "Abl1": {"target": "T31, Abl1 (Homo sapiens, UniProt P00519)", "T31 construct": "purchased Reaction Biology Corp", "experimental": "as §1"}, "CAMK4": {"target": "T32, CAMK4 (Homo sapiens, UniProt Q16566)", "T32 construct": "purchased Reaction Biology Corp", "experimental": "as §1"}, "HIPK2": {"target": "T33, HIPK2 (Homo sapiens, UniProt Q9H2X6)", "T33 construct": "purchased Reaction Biology Corp", "T33 sequence (Q9H2X6 whole entry)": "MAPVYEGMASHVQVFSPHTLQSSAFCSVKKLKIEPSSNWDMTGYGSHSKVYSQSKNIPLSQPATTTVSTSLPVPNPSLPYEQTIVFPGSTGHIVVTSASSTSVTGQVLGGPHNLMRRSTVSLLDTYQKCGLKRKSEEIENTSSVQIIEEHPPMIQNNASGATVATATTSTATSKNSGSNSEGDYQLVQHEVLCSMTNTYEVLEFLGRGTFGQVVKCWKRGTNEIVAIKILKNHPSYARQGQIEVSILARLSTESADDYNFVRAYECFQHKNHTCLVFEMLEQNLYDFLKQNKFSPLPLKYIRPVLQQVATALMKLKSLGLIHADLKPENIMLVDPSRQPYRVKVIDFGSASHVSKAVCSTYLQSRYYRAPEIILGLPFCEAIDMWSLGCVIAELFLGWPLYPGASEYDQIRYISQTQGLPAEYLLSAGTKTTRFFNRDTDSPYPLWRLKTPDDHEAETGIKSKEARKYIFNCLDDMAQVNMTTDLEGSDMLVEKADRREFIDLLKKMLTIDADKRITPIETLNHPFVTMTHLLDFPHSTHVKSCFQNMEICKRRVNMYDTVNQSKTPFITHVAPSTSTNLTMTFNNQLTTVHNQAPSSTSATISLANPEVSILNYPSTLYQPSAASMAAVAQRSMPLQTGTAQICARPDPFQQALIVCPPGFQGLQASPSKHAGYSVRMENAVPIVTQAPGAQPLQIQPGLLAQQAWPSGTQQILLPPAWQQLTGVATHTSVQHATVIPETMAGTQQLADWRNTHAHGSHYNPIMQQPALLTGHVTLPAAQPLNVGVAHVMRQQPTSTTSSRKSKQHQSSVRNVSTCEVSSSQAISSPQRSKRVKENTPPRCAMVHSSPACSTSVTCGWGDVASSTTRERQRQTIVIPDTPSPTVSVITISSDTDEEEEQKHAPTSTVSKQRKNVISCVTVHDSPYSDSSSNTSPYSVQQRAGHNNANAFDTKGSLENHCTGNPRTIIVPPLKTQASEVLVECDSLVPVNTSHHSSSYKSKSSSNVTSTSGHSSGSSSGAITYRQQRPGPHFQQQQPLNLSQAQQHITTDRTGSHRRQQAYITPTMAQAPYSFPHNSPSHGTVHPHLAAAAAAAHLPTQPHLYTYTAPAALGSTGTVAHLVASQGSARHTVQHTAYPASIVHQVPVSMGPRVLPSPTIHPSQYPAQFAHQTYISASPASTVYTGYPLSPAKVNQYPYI", "experimental": "as §1"}, "TSSK3/STK22C": {"target": "T34, TSSK3/STK22C (Homo sapiens, UniProt Q96PN8)", "T34 construct": "purchased Reaction Biology Corp", "experimental": "as §1"}, "JNK2": {"target": "T35, JNK2 (Homo sapiens, UniProt P45984)", "T35 construct": "purchased Reaction Biology Corp", "experimental": "as §1"}, "TRKA": {"target": "T36, TRKA (Homo sapiens, UniProt P04629)", "T36 construct": "purchased Reaction Biology Corp", "experimental": "as §1"}, "EPHA1": {"target": "T37, EPHA1 (Homo sapiens, UniProt P21709)", "T37 construct": "purchased Reaction Biology Corp", "experimental": "as §1"}, "PEAK1": {"target": "T38, PEAK1 (Homo sapiens, UniProt Q9H792)", "T38 construct": "purchased Reaction Biology Corp", "experimental": "as §1"}, "CK1g1": {"target": "T39, CK1g1 (Homo sapiens, UniProt Q9HCP0)", "T39 construct": "purchased Reaction Biology Corp", "experimental": "as §1"}, "SIK1": {"target": "T40, SIK1 (Homo sapiens, UniProt P57059)", "T40 construct": "purchased Reaction Biology Corp", "T40 sequence (P57059 whole entry)": "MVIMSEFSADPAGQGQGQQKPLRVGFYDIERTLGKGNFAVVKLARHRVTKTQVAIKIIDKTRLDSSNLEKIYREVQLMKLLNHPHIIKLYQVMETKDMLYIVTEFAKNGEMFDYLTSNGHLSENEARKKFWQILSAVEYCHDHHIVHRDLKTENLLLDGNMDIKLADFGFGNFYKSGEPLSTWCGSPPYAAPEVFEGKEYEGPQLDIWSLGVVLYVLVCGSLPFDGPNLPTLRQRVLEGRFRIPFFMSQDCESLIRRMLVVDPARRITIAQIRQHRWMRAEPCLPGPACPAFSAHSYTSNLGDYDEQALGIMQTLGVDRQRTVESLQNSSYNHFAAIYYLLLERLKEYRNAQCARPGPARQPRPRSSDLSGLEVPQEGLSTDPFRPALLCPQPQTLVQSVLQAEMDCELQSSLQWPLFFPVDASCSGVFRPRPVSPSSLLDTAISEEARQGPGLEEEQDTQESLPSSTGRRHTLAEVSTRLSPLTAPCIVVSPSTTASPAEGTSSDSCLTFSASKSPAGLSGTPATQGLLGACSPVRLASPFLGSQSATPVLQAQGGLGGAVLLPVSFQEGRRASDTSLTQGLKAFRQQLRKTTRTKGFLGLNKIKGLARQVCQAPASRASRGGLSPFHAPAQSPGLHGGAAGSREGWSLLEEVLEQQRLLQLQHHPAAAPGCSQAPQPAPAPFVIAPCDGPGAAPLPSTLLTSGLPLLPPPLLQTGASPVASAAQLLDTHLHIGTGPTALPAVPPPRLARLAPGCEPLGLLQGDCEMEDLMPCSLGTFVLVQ", "experimental": "as §1"}, "ZAK/MLTK": {"target": "T41, ZAK/MLTK (Homo sapiens, UniProt Q9NYL2)", "T41 construct": "purchased Reaction Biology Corp", "T41 sequence (Q9NYL2 whole entry)": "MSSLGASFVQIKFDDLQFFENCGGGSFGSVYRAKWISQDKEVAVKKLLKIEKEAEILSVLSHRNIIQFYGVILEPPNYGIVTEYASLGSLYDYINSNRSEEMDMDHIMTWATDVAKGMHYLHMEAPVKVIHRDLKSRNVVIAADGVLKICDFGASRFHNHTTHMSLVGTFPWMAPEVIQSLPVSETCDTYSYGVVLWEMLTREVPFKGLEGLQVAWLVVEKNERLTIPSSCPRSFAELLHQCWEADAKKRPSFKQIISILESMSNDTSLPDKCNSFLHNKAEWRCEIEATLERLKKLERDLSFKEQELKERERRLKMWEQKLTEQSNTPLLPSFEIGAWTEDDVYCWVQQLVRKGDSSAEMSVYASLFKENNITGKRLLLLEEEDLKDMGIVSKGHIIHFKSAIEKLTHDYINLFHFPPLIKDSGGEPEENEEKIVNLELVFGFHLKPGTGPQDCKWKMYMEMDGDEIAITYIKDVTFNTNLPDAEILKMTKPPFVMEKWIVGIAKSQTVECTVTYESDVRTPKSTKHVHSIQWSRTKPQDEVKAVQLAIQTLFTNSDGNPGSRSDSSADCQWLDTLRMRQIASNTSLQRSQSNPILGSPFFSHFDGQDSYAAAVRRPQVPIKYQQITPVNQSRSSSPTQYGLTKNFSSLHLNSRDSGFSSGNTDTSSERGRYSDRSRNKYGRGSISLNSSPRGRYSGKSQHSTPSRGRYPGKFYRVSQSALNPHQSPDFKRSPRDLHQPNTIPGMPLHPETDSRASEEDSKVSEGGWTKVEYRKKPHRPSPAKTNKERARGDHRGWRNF", "experimental": "as §1"}, "RSK1": {"target": "T42, RSK1 (Homo sapiens, UniProt Q15418)", "T42 construct": "purchased Reaction Biology Corp", "experimental": "as §1"}, "FRK/PTK5": {"target": "T43, FRK/PTK5 (Homo sapiens, UniProt P42685)", "T43 construct": "purchased Reaction Biology Corp", "experimental": "as §1"}}, "note": "Where a SMILES comes first, the peptide text is derived from it. [ ]: non-standard residue; d: D form. The star is where a group is joined. X1 = Cc1ccc(Nc2ncc3c(n2)N(C)C(=O)N(c2cc(C(=O)*)ccc2C)C3)cn1; Aib = CC(C)(N)C(=O)O"}
{"smiles": "Cc1ccc(Nc2ncc3c(n2)N(C)C(=O)N(c2cc(C(=O)N[C@H](C(=O)N4CCC[C@H]4C(=O)NC(C)(C)C(=O)N[C@@H](CC(C)C)C(=O)N(C)C)C(C)C)ccc2C)C3)cn1", "note": "[7a, (S)-N-(1-(((S)-1-(dimethylamino)-4-methyl-1-oxopentan-2-yl)amino)-2-methyl-1-oxopropan-2-yl)-1-((4-methyl-3-(1-methyl-7-((6-methylpyridin-3-yl)amino)-2-oxo-1,4-dihydropyrimido[4,5-d]pyrimidin-3(2H)-yl)benzoyl)-L-valyl)pyrrolidine-2-carboxamide] (X1-VP[Aib]L-NMe2)", "values": [{"measurement": "inhibition at 1 µM", "setting": "ERK5/MAPK7", "result": 5, "unit": "%"}, {"measurement": "inhibition at 1 µM", "setting": "SSTK/TSSK6", "result": 0, "unit": "%"}, {"measurement": "inhibition at 1 µM", "setting": "GRK2", "result": 0, "unit": "%"}, {"measurement": "inhibition at 1 µM", "setting": "PAK6", "result": 0, "unit": "%"}, {"measurement": "inhibition at 1 µM", "setting": "EPHB3", "result": 8, "unit": "%"}, {"measurement": "inhibition at 1 µM", "setting": "RON/MST1R", "result": 27, "unit": "%"}, {"measurement": "inhibition at 1 µM", "setting": "ITK", "result": 7, "unit": "%"}, {"measurement": "inhibition at 1 µM", "setting": "EPHB2", "result": 29, "unit": "%"}, {"measurement": "inhibition at 1 µM", "setting": "LRRK2", "result": 0, "unit": "%"}, {"measurement": "inhibition at 1 µM", "setting": "CK1g3", "result": 0, "unit": "%"}, {"measurement": "inhibition at 1 µM", "setting": "EPHA6", "result": 5, "unit": "%"}, {"measurement": "inhibition at 1 µM", "setting": "MST1/STK4", "result": 5, "unit": "%"}, {"measurement": "inhibition at 1 µM", "setting": "P38g", "result": 4, "unit": "%"}, {"measurement": "inhibition at 1 µM", "setting": "GSK3a", "result": 10, "unit": "%"}, {"measurement": "inhibition at 1 µM", "setting": "GLK/MAP4K3", "result": 9, "unit": "%"}, {"measurement": "inhibition at 1 µM", "setting": "TYRO3/SKY", "result": 1, "unit": "%"}, {"measurement": "inhibition at 1 µM", "setting": "TESK2", "result": 4, "unit": "%"}, {"measurement": "inhibition at 1 µM", "setting": "TAK1", "result": 4, "unit": "%"}, {"measurement": "inhibition at 1 µM", "setting": "CDK1/cyclin A", "result": 0, "unit": "%"}, {"measurement": "inhibition at 1 µM", "setting": "CAMK1d", "result": 8, "unit": "%"}, {"measurement": "inhibition at 1 µM", "setting": "STK25/YSK1", "result": 3, "unit": "%"}, {"measurement": "inhibition at 1 µM", "setting": "EPHA2", "result": 21, "unit": "%"}, {"measurement": "inhibition at 1 µM", "setting": "NEK2", "result": 0, "unit": "%"}, {"measurement": "inhibition at 1 µM", "setting": "MEK3", "result": 0, "unit": "%"}, {"measurement": "inhibition at 1 µM", "setting": "NIM1", "result": 4, "unit": "%"}, {"measurement": "inhibition at 1 µM", "setting": "DYRK1B", "result": 11, "unit": "%"}, {"measurement": "inhibition at 1 µM", "setting": "TNK1", "result": 2, "unit": "%"}, {"measurement": "inhibition at 1 µM", "setting": "MARK2/PAR-1Ba", "result": 0, "unit": "%"}, {"measurement": "inhibition at 1 µM", "setting": "PKCnu/PRKD3", "result": 0, "unit": "%"}, {"measurement": "inhibition at 1 µM", "setting": "MYLK3", "result": 0, "unit": "%"}, {"measurement": "inhibition at 1 µM", "setting": "Abl1", "result": 63, "unit": "%"}, {"measurement": "inhibition at 1 µM", "setting": "CAMK4", "result": 0, "unit": "%"}, {"measurement": "inhibition at 1 µM", "setting": "HIPK2", "result": 0, "unit": "%"}, {"measurement": "inhibition at 1 µM", "setting": "TSSK3/STK22C", "result": 3, "unit": "%"}, {"measurement": "inhibition at 1 µM", "setting": "JNK2", "result": 2, "unit": "%"}, {"measurement": "inhibition at 1 µM", "setting": "TRKA", "result": 0, "unit": "%"}, {"measurement": "inhibition at 1 µM", "setting": "EPHA1", "result": 3, "unit": "%"}, {"measurement": "inhibition at 1 µM", "setting": "PEAK1", "result": 44, "unit": "%"}, {"measurement": "inhibition at 1 µM", "setting": "CK1g1", "result": 0, "unit": "%"}, {"measurement": "inhibition at 1 µM", "setting": "SIK1", "result": 10, "unit": "%"}, {"measurement": "inhibition at 1 µM", "setting": "ZAK/MLTK", "result": 14, "unit": "%"}, {"measurement": "inhibition at 1 µM", "setting": "RSK1", "result": 17, "unit": "%"}, {"measurement": "inhibition at 1 µM", "setting": "FRK/PTK5", "result": 15, "unit": "%"}]}
